Experimental data published in patent publication US10093678B2, “Azaspiro derivatives as TRPM8 antagonists” (RaQualia Pharma Inc., priority 2014, dated 2018).

Target: T1, human TRPM8 (Homo sapiens, UniProt Q7Z2W7)
T1 construct: expressed in transfected cells; host or cells: HEK293
Experiment: Menthol-induced Ca2+ influx in HEK293 cells stably expressing human TRPM8
Format: cell-based
Conditions: 30 microM menthol-induced Ca2+ influx, read-out: IC50 against TRPM8
In short: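 IC50 values were fitted from 11-point dose-response data averaged over duplicate wells. Compound was added for 5 min to Fluo4-loaded HEK293 cells carrying stable human TRPM8, in HBSS/HEPES pH 7.4 with probenecid. Intracellular Ca2+ change after 30 microM menthol addition was then imaged on FDSS.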

T1 sequence (Q7Z2W7 whole entry): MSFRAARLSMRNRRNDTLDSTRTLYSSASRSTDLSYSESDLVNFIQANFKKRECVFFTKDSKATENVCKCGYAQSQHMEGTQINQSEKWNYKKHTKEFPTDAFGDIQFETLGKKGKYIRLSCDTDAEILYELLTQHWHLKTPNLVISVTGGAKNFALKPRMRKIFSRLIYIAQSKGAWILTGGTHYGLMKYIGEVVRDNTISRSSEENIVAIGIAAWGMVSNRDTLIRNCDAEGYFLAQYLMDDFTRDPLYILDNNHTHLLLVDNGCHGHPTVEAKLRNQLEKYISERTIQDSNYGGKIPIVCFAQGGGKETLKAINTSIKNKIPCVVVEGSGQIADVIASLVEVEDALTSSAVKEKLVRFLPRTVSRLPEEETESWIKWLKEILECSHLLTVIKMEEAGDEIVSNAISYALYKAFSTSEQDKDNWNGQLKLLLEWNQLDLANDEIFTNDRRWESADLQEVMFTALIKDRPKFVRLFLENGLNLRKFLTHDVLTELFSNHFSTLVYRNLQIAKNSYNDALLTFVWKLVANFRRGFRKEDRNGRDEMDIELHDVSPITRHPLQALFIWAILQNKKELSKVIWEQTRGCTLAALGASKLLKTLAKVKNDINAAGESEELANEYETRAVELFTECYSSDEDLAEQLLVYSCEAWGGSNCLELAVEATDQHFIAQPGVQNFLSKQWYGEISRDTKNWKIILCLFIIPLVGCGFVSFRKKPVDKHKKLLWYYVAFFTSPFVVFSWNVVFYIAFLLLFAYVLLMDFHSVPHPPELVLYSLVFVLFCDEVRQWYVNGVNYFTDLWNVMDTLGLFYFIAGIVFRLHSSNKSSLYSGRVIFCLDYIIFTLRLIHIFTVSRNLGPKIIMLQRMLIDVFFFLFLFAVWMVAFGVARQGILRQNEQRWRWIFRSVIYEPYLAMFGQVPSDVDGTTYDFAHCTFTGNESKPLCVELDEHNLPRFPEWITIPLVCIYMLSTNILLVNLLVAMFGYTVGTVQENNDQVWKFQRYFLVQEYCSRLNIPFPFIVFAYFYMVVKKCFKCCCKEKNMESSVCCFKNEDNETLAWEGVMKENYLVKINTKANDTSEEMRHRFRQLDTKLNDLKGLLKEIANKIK

| IC50 | Compound |
| --- | --- |
| < 100 nM | N#Cc1nccnc1-c1ccc(C(=O)CN2C(=O)NC3(CCC(F)(F)CC3)C2=O)cc1F [Example 8-1] |
| < 100 nM | O=C(CN1C(=O)NC2(CCC(F)(F)CC2)C1=O)c1ccc(-c2cnccc2CO)c(F)c1 [Example 8-2] |
| < 100 nM | Cc1nccnc1-c1ccc(C(=O)CN2C(=O)NC3(CCC(F)(F)CC3)C2=O)cc1F [Example 8-3] |
| < 100 nM | N#Cc1ncccc1-c1ccc(C(=O)CN2C(=O)NC3(CCC(F)(F)CC3)C2=O)cc1F [Example 8-4] |
| < 100 nM | O=C(CN1C(=O)NC2(CCC(F)(F)CC2)C1=O)c1ccc(-c2cccnc2CO)c(F)c1 [Example 8-5] |
| < 500 nM | Nc1ccnnc1-c1ccc(C(=O)CN2C(=O)NC3(CCC(F)(F)CC3)C2=O)cc1F [Example 8-6] |
| < 100 nM | Cc1ccnnc1-c1ccc(C(=O)CN2C(=O)NC3(CCC(F)(F)CC3)C2=O)c(F)c1 [Example 8-7] |
| < 100 nM | N#Cc1nccnc1-c1ccc(C(=O)CN2C(=O)NC3(CCC(F)(F)CC3)C2=O)c(F)c1 [Example 8-8] |
| < 100 nM | O=C(CN1C(=O)NC2(CCC(F)(F)CC2)C1=O)c1ccc(-c2nccnc2CO)cc1F [Example 8-9] |
| < 10 nM | Cc1ccncc1-c1ccc(C(=O)CN2C(=O)NC3(CCCCC3)C2=O)cn1 [Example 9-1] |
| < 10 nM | Cc1ccccc1-c1ccc(C(=O)CN2C(=O)NC3(CCCCC3)C2=O)cn1 [Example 9-2] |
| < 10 nM | COc1ccccc1-c1ccc(C(=O)CN2C(=O)NC3(CCCCC3)C2=O)cn1 [Example 9-3] |
| < 100 nM | O=C(CN1C(=O)NC2(CCCCC2)C1=O)c1ccc(-c2ccccc2F)nc1 [Example 9-4] |
| < 100 nM | O=C(CN1C(=O)NC2(CCCCC2)C1=O)c1ccc(-c2ccccc2CO)nc1 [Example 9-5] |
| < 100 nM | O=C(CN1C(=O)NC2(CCCCC2)C1=O)c1ccc(-c2ccccc2C(F)(F)F)nc1 [Example 9-6] |
| < 100 nM | Cc1ncccc1-c1ccc(C(=O)CN2C(=O)NC3(CCCCC3)C2=O)cn1 [Example 9-7] |
| < 100 nM | N#Cc1ccccc1-c1ccc(C(=O)CN2C(=O)NC3(CCCCC3)C2=O)cn1 [Example 9-8] |
| < 100 nM | N#Cc1cccc(-c2ccc(C(=O)CN3C(=O)NC4(CCCCC4)C3=O)cn2)c1 [Example 9-9] |
| < 10 nM | O=C(CN1C(=O)NC2(CCC(F)(F)CC2)C1=O)c1ccc(-c2cccc3[nH]ccc23)nc1 [Example 9-10] |
| < 10 nM | Cc1ccccc1-c1ccc(C(=O)CN2C(=O)NC3(CCC(F)(F)CC3)C2=O)cn1 [Example 9-11] |
| < 10 nM | O=C(CN1C(=O)NC2(CCC(F)(F)CC2)C1=O)c1ccc(-c2cccc3ccncc23)nc1 [Example 9-12] |
| < 100 nM | O=C(CN1C(=O)NC2(CCC(F)(F)CC2)C1=O)c1ccc(-c2cccc3cccnc23)nc1 [Example 9-13] |
| < 100 nM | O=C(CN1C(=O)NC2(CCC(F)(F)CC2)C1=O)c1ccc(-c2cccc3[nH]ncc23)nc1 [Example 9-14] |
| < 100 nM | Cc1ncccc1-c1ccc(C(=O)CN2C(=O)NC3(CCC(F)(F)CC3)C2=O)cn1 [Example 9-15] |
| < 100 nM | O=C(CN1C(=O)NC2(CCC(F)(F)CC2)C1=O)c1ccc(-c2cncc3ccccc23)nc1 [Example 9-16] |

| IC50 | Compound |
| --- | --- |
| < 100 nM | O=C(CN1C(=O)NC2(CCC(F)(F)CC2)C1=O)c1ccc(-c2ccccc2CO)nc1 [Example 9-17] |
| < 100 nM | O=C(CN1C(=O)NC2(CCC(F)(F)CC2)C1=O)c1ccc(-c2ccnc3ccccc23)nc1 [Example 9-18] |
| < 100 nM | O=C1Cc2c(cccc2-c2ccc(C(=O)CN3C(=O)NC4(CCC(F)(F)CC4)C3=O)cn2)N1 [Example 9-19] |
| < 100 nM | CCc1ccccc1-c1ccc(C(=O)CN2C(=O)NC3(CCC(F)(F)CC3)C2=O)cn1 [Example 9-20] |
| < 100 nM | O=C(CN1C(=O)NC2(CCC(F)(F)CC2)C1=O)c1ccc(-c2cccc3cnccc23)nc1 [Example 9-21] |
| < 100 nM | O=C(CN1C(=O)NC2(CCC(F)(F)CC2)C1=O)c1ccc(-c2ccnc3[nH]ccc23)nc1 [Example 9-22] |
| < 100 nM | O=C(CN1C(=O)NC2(CCC(F)(F)CC2)C1=O)c1ccc(-c2cncc3[nH]ccc23)nc1 [Example 9-23] |
| < 100 nM | O=C(CN1C(=O)NC2(CCC(F)(F)CC2)C1=O)c1ccc(-c2cnccc2CO)nc1 [Example 9-24] |
| < 100 nM | O=C(CN1C(=O)NC2(CCC(F)(F)CC2)C1=O)c1ccc(-c2cccnc2CO)nc1 [Example 9-25] |
| < 500 nM | O=C(CN1C(=O)NC2(CCC(F)(F)CC2)C1=O)c1ccc(-c2ccnc3[nH]ncc23)nc1 [Example 9-26] |
| < 500 nM | O=C(CN1C(=O)NC2(CCC(F)(F)CC2)C1=O)c1ccc(-c2cncc3[nH]ncc23)nc1 [Example 9-27] |
| < 100 nM | Cc1ncccc1-c1ccc(C(=O)CN2C(=O)NC3(CCC(F)(F)CC3)C2=O)nc1 [Example 10-1] |
| < 100 nM | Cc1ccccc1-c1ccc(C(=O)CN2C(=O)NC3(CCC(F)(F)CC3)C2=O)nc1 [Example 10-2] |
| < 100 nM | Cc1cc(C(=O)CN2C(=O)NC3(CCCCC3)C2=O)cnc1-c1ccccc1C#N [Example 11-1] |
| < 100 nM | Cc1cc(C(=O)CN2C(=O)NC3(CCCCC3)C2=O)cnc1-c1ccccc1 [Example 11-2] |
| < 10 nM | Cc1ncccc1-c1cnc(C(=O)CN2C(=O)NC3(CCC(F)(F)CC3)C2=O)cn1 [Example 12-1] |
| < 100 nM | Cc1ccccc1-c1cnc(C(=O)CN2C(=O)NC3(CCC(F)(F)CC3)C2=O)cn1 [Example 12-2] |
| < 100 nM | O=C(CN1C(=O)NC2(CCC(F)(F)CC2)C1=O)c1cnc(-c2ccccc2CO)cn1 [Example 12-3] |
| < 100 nM | COc1ncccc1-c1cnc(C(=O)CN2C(=O)NC3(CCC(F)(F)CC3)C2=O)cn1 [Example 12-4] |
| < 100 nM | COc1ccncc1-c1cnc(C(=O)CN2C(=O)NC3(CCC(F)(F)CC3)C2=O)cn1 [Example 12-5] |
| < 100 nM | O=C(CN1C(=O)NC2(CCC(F)(F)CC2)C1=O)c1cnc(-c2cccc3cccnc23)cn1 [Example 12-6] |
| < 500 nM | Cc1ccccc1-c1ccc(C(=O)CN2C(=O)NC3(CCC(F)(F)CC3)C2=O)nn1 [Example 12-7] |
| < 100 nM | O=C(CN1C(=O)NC2(CCCCC2)C1=O)c1ccc(-c2ccccc2CO)cc1 [Example 13-1] |
| < 100 nM | O=C(CN1C(=O)NC2(CCCCC2)C1=O)c1ccc(-c2cccnc2)cc1 [Example 13-2] |

The remaining lines, values behind:

| Compound | IC50 |
| --- | --- |
| O=C(CN1C(=O)NC2(CCC(F)(F)CC2)C1=O)c1ccc(Cc2ccccn2)cc1 [Example 6-119] | < 500 nM |
| N#Cc1ccccc1Cc1ccc(C(=O)CN2C(=O)NC3(CCC(F)(F)CC3)C2=O)cc1 [Example 6-120] | < 500 nM |
| O=C(CN1C(=O)NC2(CCC(F)(F)CC2)C1=O)c1ccc(-c2ccncc2Cl)cc1 [Example 6-122] | < 100 nM |
| Cc1ncccc1-c1ccc(C(=O)CN2C(=O)NC3(CCCCC3)C2=O)cc1 [Example 7-1] | < 10 nM |
| Cc1ccncc1-c1ccc(C(=O)CN2C(=O)NC3(CCCCC3)C2=O)cc1 [Example 7-2] | < 100 nM |
| Cc1ccsc1-c1ccc(C(=O)CN2C(=O)NC3(CCCCC3)C2=O)cc1 [Example 7-3] | < 100 nM |
| Cc1cnc(C)c(-c2ccc(C(=O)CN3C(=O)NC4(CCCCC4)C3=O)cc2)n1 [Example 7-4] | < 100 nM |
| N#Cc1cccc(-c2ccc(C(=O)CN3C(=O)NC4(CCCCC4)C3=O)cc2)n1 [Example 7-5] | < 100 nM |
| Cn1nccc1-c1ccc(C(=O)CN2C(=O)NC3(CCCCC3)C2=O)cc1 [Example 7-6] | < 100 nM |
| O=C(CN1C(=O)NC2(CCCCC2)C1=O)c1ccc(-c2ncccc2CO)cc1 [Example 7-7] | < 100 nM |
| N#Cc1ncccc1-c1ccc(C(=O)CN2C(=O)NC3(CCCCC3)C2=O)cc1 [Example 7-8] | < 100 nM |
| O=C(CN1C(=O)NC2(CCCCC2)C1=O)c1ccc(-c2cnccc2CO)cc1 [Example 7-9] | < 100 nM |
| O=C(CN1C(=O)NC2(CCCCC2)C1=O)c1ccc(-c2nccnc2CO)cc1 [Example 7-10] | < 100 nM |
| O=C(CN1C(=O)NC2(CCCCC2)C1=O)c1ccc(-c2cccnc2CO)cc1 [Example 7-11] | < 100 nM |
| N#Cc1cccnc1-c1ccc(C(=O)CN2C(=O)NC3(CCCCC3)C2=O)cc1 [Example 7-12] | < 100 nM |
| Nc1ncccc1-c1ccc(C(=O)CN2C(=O)NC3(CCCCC3)C2=O)cc1 [Example 7-13] | < 100 nM |
| Cc1nccnc1-c1ccc(C(=O)CN2C(=O)NC3(CCCCC3)C2=O)cc1 [Example 7-14] | < 100 nM |
| N#Cc1nccnc1-c1ccc(C(=O)CN2CC3(CCC(F)(F)CC3)OC2=O)cc1 [Example 7-15] | < 500 nM |
| O=C(CN1CC2(CCC(F)(F)CC2)OC1=O)c1ccc(-c2cnccc2CO)cc1 [Example 7-16] | < 500 nM |
| Cc1cnc(C)c(-c2ccc(C(=O)CN3CC4(CCC(F)(F)CC4)OC3=O)cc2)n1 [Example 7-17] | < 500 nM |
| O=C(CN1CC2(CCC(F)(F)CC2)OC1=O)c1ccc(-c2cccnc2CO)cc1 [Example 7-18] | < 500 nM |
| Cc1nccnc1-c1ccc(C(=O)CN2CC3(CCC(F)(F)CC3)OC2=O)cc1 [Example 7-19] | < 500 nM |
| N#Cc1ncccc1-c1ccc(C(=O)CN2CC3(CCC(F)(F)CC3)OC2=O)cc1 [Example 7-20] | < 500 nM |
| Cc1ccnnc1-c1ccc(C(=O)CN2C(=O)OC3(CCC(F)(F)CC3)C2=O)cc1 [Example 7-21] | < 100 nM |
| O=C(CN1C(=O)OC2(CCC(F)(F)CC2)C1=O)c1ccc(-c2nccc3ccncc23)cc1 [Example 7-22] | < 10 nM |
| Cc1ccnnc1-c1ccc(C(=O)CN2C(=O)NC3(CCCCC3)C2=O)cc1 [Example 7-23] | < 500 nM |
| O=C(CN1C(=O)OC2(CCC(F)(F)CC2)C1=O)c1ccc(-c2ccccn2)cc1 [Example 7-24] | < 100 nM |
| N#Cc1cccc(-c2ccc(C(=O)CN3C(=O)OC4(CCC(F)(F)CC4)C3=O)cc2)n1 [Example 7-25] | < 100 nM |
| O=C(CN1C(=O)OC2(CCC(F)(F)CC2)C1=O)c1ccc(-c2ncccn2)cc1 [Example 7-26] | < 100 nM |
